pEC50: −log10 of the molar value. Where two headings read alike, the source gives them in different places.
Experiments:
in vitro = conditions: human; for CC50 at 5 days: uninfected MT-4 cells
Method: Compounds were serially diluted (1:3) in DMSO on 384-well polypropylene plates and further diluted 200-fold into complete RPMI media (10% FBS, 1% P/S) using the Biotek Micro Flow and Labcyte ECHO acoustic dispenser. […] Infected and uninfected MT-4 cells were further diluted in complete RPMI media and added to each plate using a Micro Flow dispenser. After 5 days incubation in a humidified and temperature controlled incubator (37° C.), Cell Titer Glo (Promega) was added to the assay plates and chemiluminescence read using an Envision plate-reader.
Assays were performed as above except uninfected MT-4 cells were added to each well containing test compound. In addition, 10 μM puromycin was added to the last column of each assay plate to assess a base level of cytotoxicity.

pLAI reporter virus = experiment: microbe, parasite or virus in culture; format: cell-based, HIV; conditions: Human immunodeficiency virus 1, MT4, 72 h
HIV-1 (IIIB) = experiment: microbe, parasite or virus in culture; format: cell-based; conditions: Human immunodeficiency virus 1, IIIB, MT4, 120 h, read-out: MT4 EC50
[1] = HIV-1 (IIIB) in MT-4 cells, 5 days incubation, Cell Titer Glo

| SMILES | CC50 at 5 days (in vitro) | pEC50 (pLAI reporter virus; read-out: RLUC 50% HS EC50) | pEC50 (pLAI reporter virus; read-out: RLUC CCM EC50) | pEC50 (HIV-1 (IIIB)) | pEC50 (HIV-1 (IIIB); [1]) | CC50 (in vitro) |
| --- | --- | --- | --- | --- | --- | --- |
| C[C@H]1CC[C@]2(CC(N(C)C)=NO2)[C@H]2CN1C(=O)c1c(O)c(=O)c(C(=O)NCc3c(F)cc(F)cc3F)cn12 [Example 52, (3′S,5S,7′R)-3-(dimethylamino)-12′-hydroxy-3′-methyl-1′,11′-dioxo-N-(2,4,6-trifluorobenzyl)-1′,4′,5′,11′-tetrahydro-3′H,4H,7′H-spiro[isoxazole-5,6′-[2,7]methanopyrido[1,2-a][1,4]diazonine]-10′-carboxamide] | 27000 nM | 8.21 | 9.52 | 9.05 |  |  |
| C[C@H]1CC[C@]2(CC(Cl)=NO2)[C@H]2CN1C(=O)c1c(O)c(=O)c(C(=O)NCc3c(F)cc(F)cc3F)cn12 [Example 53, (3′S,5S,7′R)-3-chloro-12′-hydroxy-3′-methyl-1′,11′-dioxo-N-(2,4,6-trifluorobenzyl)-1′,4′,5′,11′-tetrahydro-3′H,4H,7′H-spiro[isoxazole-5,6′-[2,7]methanopyrido[1,2-a][1,4]diazonine]-10′-carboxamide] | 9470 nM | 6.78 | 9.52 | 8.77 |  |  |
| CC1=NO[C@@]2(CC[C@H](CF)N3C[C@H]2n2cc(C(=O)NCc4c(F)cc(F)cc4F)c(=O)c(O)c2C3=O)C1 [Example 54, (3′R,5S,7′R)-3′-(fluoromethyl)-12′-hydroxy-3-methyl-1′,11′-dioxo-N-(2,4,6-trifluorobenzyl)-1′,4′,5′,11′-tetrahydro-3′H,4H,7′H-spiro[isoxazole-5,6′-[2,7]methanopyrido[1,2-a][1,4]diazonine]-10′-carboxamide] | 27300 nM | 7.27 | 9.52 |  | 9.15 |  |
| C[C@H]1CC[C@@]2(CCO2)[C@H]2CN1C(=O)c1c(O)c(=O)c(C(=O)NCc3c(F)cc(F)cc3F)cn12 [Example 55, (2R,3′S,7′R)-12′-hydroxy-3′-methyl-1′,11′-dioxo-N-(2,4,6-trifluorobenzyl)-1′,4′,5′,11′-tetrahydro-3′H,7′H-spiro[oxetane-2,6′-[2,7]methanopyrido[1,2-a][1,4]diazonine]-10′-carboxamide] | ≥ 50000 nM | 7.29 | 8.96 |  | 8.77 |  |
| CC1=NCC2(CC[C@H](C)N3C[C@H]2n2cc(C(=O)NCc4ccc(F)cc4F)c(=O)c(O)c2C3=O)O1 (stereo partly drawn) [Example 56, (3′S,7′R)—N-(2,4-difluorobenzyl)-12′-hydroxy-2,3′-dimethyl-1′,11′-dioxo-1′,4′,5′,11′-tetrahydro-3′H,4H,7′H-spiro[oxazole-5,6′-[2,7]methanopyrido[1,2-a][1,4]diazonine]-10′-carboxamide] | ≥ 50000 nM | 8.30 | 8.47 |  | 8.21 |  |
| C[C@H]1CC[C@@]2(CNC(=O)C2)[C@H]2CN1C(=O)c1c(O)c(=O)c(C(=O)NCc3c(F)cc(F)cc3F)cn12 [Example 57, (3R,3′S, 7′S)-12′-hydroxy-3′-methyl-1′,5,11′-trioxo-N-(2,4,6-trifluorobenzyl)-1′,4′,5′,11′-tetrahydro-3′H, 7′H-spiro[pyrrolidine-3,6′-[2,7]methanopyrido[ ],2-a][1,4]diazonine-10′-carboxamide] |  | 8.22 | 7.86 | 7.55 |  | ≥ 50000 nM |
| C[C@H]1CC[C@@]2(CN(C)C(=O)O2)[C@H]2CN1C(=O)c1c(O)c(=O)c(C(=O)NCc3c(F)cc(F)cc3F)cn12 [Example 60, (3′S,5R,7′R)-12′-hydroxy-3,3′-dimethyl-1′,2,11′-trioxo-N-(2,4,6-trifluorobenzyl)-1′,4′,5′,11′-tetrahydro-3′H,7′H-spiro[oxazolidine-5,6′-[2,7]methanopyrido[1,2-a][1,4]diazonine]-10′-carboxamide] | ≥ 50000 nM | 7.51 | 7.60 |  | 7.10 |  |
| C[C@H]1CC[C@]2(CC(=O)N(C)C2)[C@H]2CN1C(=O)c1c(O)c(=O)c(C(=O)NCc3c(F)cc(F)cc3F)cn12 [Example 61, (3R,3′S,7′S)-12′-hydroxy-1,3′-dimethyl-1′,5,11′-trioxo-N-(2,4,6-trifluorobenzyl)-1′,4′,5′,11′-tetrahydro-3′H,7′H-spiro[pyrrolidine-3,6′-[2,7]methanopyrido[1,2-a][1,4]diazonine]-10′-carboxamide] | ≥ 50000 nM | 8.47 | 8.72 |  | 8.12 |  |
| C[C@H]1CC[C@@]2(CC(=O)N(C)C2)[C@H]2CN1C(=O)c1c(O)c(=O)c(C(=O)NCc3c(F)cc(F)cc3F)cn12 [Example 62, (3S,3′S,7′S)-12′-hydroxy-1,3′-dimethyl-1′,5,11′-trioxo-N-(2,4,6-trifluorobenzyl)-1′,4′,5′,11′-tetrahydro-3′H,7′H-spiro[pyrrolidine-3,6′-[2,7]methanopyrido[1,2-a][1,4]diazonine]-10′-carboxamide] | ≥ 50000 nM | 7.87 | 8.11 |  | 7.51 |  |
| CCN1C[C@@]2(CC[C@H](C)N3C[C@H]2n2cc(C(=O)NCc4c(F)cc(F)cc4F)c(=O)c(O)c2C3=O)OC1=O [Example 63, (3′S,5R,7′R)-3-ethyl-12′-hydroxy-3′-methyl-1′,2,11′-trioxo-N-(2,4,6-trifluorobenzyl)-1′,4′,5′,11′-tetrahydro-3′H,7′H-spiro[oxazolidine-5,6′-[2,7]methanopyrido[1,2-a][1,4]diazonine]-10′-carboxamide] | ≥ 50000 nM | 7.81 | 7.95 |  | 7.34 |  |
| COC1=NO[C@@]2(CC[C@H](C)N3C[C@H]2n2cc(C(=O)NCc4ncc(F)c(Cl)c4F)c(=O)c(O)c2C3=O)C1 [Example 64, (3′S,5S,7′R)—N-((4-chloro-3,5-difluoropyridin-2-yl)methyl)-12′-hydroxy-3-methoxy-3′-methyl-1′,11′-dioxo-1′,4′,5′,11′-tetrahydro-3′H,4H,7′H-spiro[isoxazole-5,6′-[2,7]methanopyrido[1,2-a][1,4]diazonine]-10′-carboxamide] | 22900 nM | 6.52 | 9.22 | 8.54 |  |  |
| COC1=NO[C@@]2(CC[C@H](C)N3C[C@H]2n2cc(C(=O)NCc4cc(F)c(F)cc4F)c(=O)c(O)c2C3=O)C1 [Example 65, (3′S,5S,7′R)-12′-hydroxy-3-methoxy-3′-methyl-1′,11′-dioxo-N-(2,4,5-trifluorobenzyl)-1′,4′,5′,11′-tetrahydro-3′H,4H,7′H-spiro[isoxazole-5,6′-[2,7]methanopyrido[1,2-a][1,4]diazonine]-10′-carboxamide] | 26300 nM | 6.97 | 9.22 |  | 8.80 |  |
| C[C@H]1CC[C@]2(CC(CF)=NO2)[C@H]2CN1C(=O)c1c(O)c(=O)c(C(=O)NCc3ncc(F)c(Cl)c3F)cn12 [Example 66, (3′S,5S,7′R)—N-((4-chloro-3,5-difluoropyridin-2-yl)methyl)-3-(fluoromethyl)-12′-hydroxy-3′-methyl-1′,11′-dioxo-1′,4′,5′,11′-tetrahydro-3′H,4H,7′H-spiro[isoxazole-5,6′-[2,7]methanopyrido[1,2-a][1,4]diazonine]-10′-carboxamide] | 30100 nM | 6.25 | 9.10 |  | 8.41 |  |
| CCC1=NO[C@@]2(CC[C@H](C)N3C[C@H]2n2cc(C(=O)NCc4c(F)cc(F)cc4F)c(=O)c(O)c2C3=O)C1 [Example 67, (3′S,5S,7′R)-3-ethyl-12′-hydroxy-3′-methyl-1′,11′-dioxo-N-(2,4,6-trifluorobenzyl)-1′,4′,5′,11′-tetrahydro-3′H,4H,7′H-spiro[isoxazole-5,6′-[2,7]methanopyrido[1,2-a][1,4]diazonine]-10′-carboxamide] | 20000 nM | 6.72 | 9.52 |  | 8.89 |  |
| CCCC1=NO[C@@]2(CC[C@H](C)N3C[C@H]2n2cc(C(=O)NCc4c(F)cc(F)cc4F)c(=O)c(O)c2C3=O)C1 [Example 68, (3′S,5S,7′R)-12′-hydroxy-3′-methyl-1′,11′-dioxo-3-propyl-N-(2,4,6-trifluorobenzyl)-1′,4′,5′,11′-tetrahydro-3′H,4H,7′H-spiro[isoxazole-5,6′-[2,7]methanopyrido[1,2-a][1,4]diazonine]-10′-carboxamide] | 15700 nM | 7.07 | 9.52 |  | 8.92 |  |
| C[C@H]1CC[C@]2(CC(CCF)=NO2)[C@H]2CN1C(=O)c1c(O)c(=O)c(C(=O)NCc3c(F)cc(F)cc3F)cn12 [Example 69, (3′S,5S,7′R)-3-(2-fluoroethyl)-12′-hydroxy-3′-methyl-1′,11′-dioxo-N-(2,4,6-trifluorobenzyl)-1′,4′,5′,11′-tetrahydro-3′H,4H,7′H-spiro[isoxazole-5,6′-[2,7]methanopyrido[1,2-a][1,4]diazonine]-10′-carboxamide] | 26300 nM | 7.03 | 9.70 |  | 8.89 |  |
| C[C@@H](F)C1=NO[C@@]2(CC[C@H](C)N3C[C@H]2n2cc(C(=O)NCc4c(F)cc(F)cc4F)c(=O)c(O)c2C3=O)C1 [Example 70, (3′S,5S,7′R)-3-((R)-1-fluoroethyl)-12′-hydroxy-3′-methyl-1′,11′-dioxo-N-(2,4,6-trifluorobenzyl)-1′,4′,5′,11′-tetrahydro-3′H,4H,7′H-spiro[isoxazole-5,6′-[2,7]methanopyrido[1,2-a][1,4]diazonine]-10′-carboxamide] | 26600 nM | 6.75 | 9.40 |  | 8.89 |  |

— patent publication US20250115620A1, “BRIDGED TRICYCLIC CARBAMOYLPYRIDONE COMPOUNDS AND USES THEREOF” (Gilead Sciences, Inc., priority 2022, published 2025)
